Results: US20070270350A1, “Methods and Compositions for the Prevention and Treatment of Inflammatory Diseases or Conditions” (MUSC FOUNDATION FOR RESEARCH DEVELOPMENT, priority 2003, published 2007)

How the values were obtained:
NF-κB = NF-κB reporter, gel shift and IκB phosphorylation after LPS/IFN; type: cell-based, rat
Method: (§1) Western Blot Analysis. For iNOS protein, the cells were washed with cold Tris buffered saline (TBS; 20 mM Trizma base, and 137 mM NaCl, pH 7.5), lysed in 1×SDS sample loading buffer (62.5 mM Trizma base, 2% w/v SDS, 10% glycerol), following sonication and centrifugation at 1,5000×g for 5 min, the supernatant was used for the iNOS western immunoblot assay. The protein concentration of samples was determined with the detergent compatible protein assay reagent (Bio-Rad Laboratories, CA) using bovine serum albumin (BSA) as the standard. Sample was boiled for 3 min with 0.1 volumes of 10% O-mercaptoethanol and 0.5% bromophenol blue mix. Fifty μg of total cellular protein was resolved by electrophoresis in 8 or 12% polyacrylamide gels, electro-transferred to polyvinylidene difluoride (PVDF) filter and blocked with Tween 20 containing Tris-buffered saline [TBST; 10 mM Trizma base (pH 7.4), 1% Tween 20, and 150 mM NaCl] with 5% skim milk. After incubation with antiserum against iNOS (BD PharMingen, CA), or hRas (Upstate Biotechnology, CA), or phospho-specific MAPK (p42/44) (Signal Transduction), in PVDF buffer for 2 h at room temperature, the filters were washed 3 times with TBST buffer and then incubated with horseradish peroxidase conjugated anti-rabbit or mouse IgG for 1 h. The membranes were autoradiographed by using ECL-plus (Amersham Pharmacia Biotech) after washing with TBST buffer.
Nuclear Extraction and Electrophoretic mobility shift assay. Nuclear extracts from cells (1×10^7 cells) were prepared using previously published method (Dignam et al., 1983) with slight modification. Cells were harvested, washed twice with ice-cold TBS, and lysed in 400 μl of buffer A containing, 10 mM KCl, 2 mM MgCl2, 0.5 mM dithiothreitol, protease inhibitor cocktail (Sigma), and 0.1% Nonidet P40 in 10 mM HEPES, pH 7.9 for 10 min on ice. Following centrifugation at 5,000×g for 10 min, the pelleted nuclei were washed with buffer A without Nonidet P40, and re-suspended in 40 μl of buffer B containing 25% (v/v) glycerol, 0.42 M NaCl, 1.5 mM MgCl2, 0.2 mM EDTA, 0.5 mM dithiothreitol, and Complete™ protease inhibitor cocktail (Roche) in 20 mM HEPES, pH7.9 for 30 min on ice. The lysates were centrifuged at 15,000×g for 15 min and the supernatants containing the nuclear proteins were stored at −70° C. until use. Ten μg of nuclear proteins was used for the electrophoretic mobility shift assay for detection of AP-1, NFκB, and C/EBP DNA binding activities. DNA-protein binding reactions were carried out at room temperature for 20 min in 10 mM Trizma base (pH 7.9), 50 mM NaCl, 5 mM MgCl2, 1 mM EDTA, 1 mM dithiothreitol, 1 μg poly (dl-dC), 5% (v/v) glycerol, and approximately 0.3 pmol of NFκB (Santa Cruz Biotech) labeled with DIG-ddUTP using terminal deoxynucleotidyl transferase (Roche). Protein-DNA complexes were resolved from protein-free DNA in 5% polyacrylamide gels at room temperature in 50 mM Tris, pH 8.3, 0.38 M glycine, and 2 mM EDTA, and electroblotted onto positively charged nylon membranes. The chemiluminescence detection method for DIG-labeled probes is identical to the method described for the non-isotopic northern blot analysis in the preceding.
Transient Transfections and Reporter Gene Assay. 3×10^5 cells/well were cultured in 6-well plates for one day before the transfection. Transfection was performed with plasmid concentration constant (2.5 μg/transfection) and 8 μl of Fugene transfection reagent (Roche Molecular Biochemicals). One day after transfection, the cells were placed in serum free media for overnight. Following appropriate treatment, the cells were washed with phosphate buffered saline (PBS), scrapped, and then resuspended with 100 μl of lysis buffer (40 mM of Tricine pH 7.8, 50 mM of NaCl, 2 mM of EDTA, 1 mM of MgSO4, 5 mM of dithiothreitol, and 1% of Triton X-100). After incubation in room temperature for 15 min with occasional vortexing, the samples were centrifuged. […]

[1] = target: T1, lactosylceramide synthase (GalT-2) (Rattus norvegicus, UniProt O88419); test: Measurement of lactosylceramide synthesis in primary astrocytes; type: cell-based; settings: D-PDMP pretreatment 0.5 hr; 14C-galactose labelling, HPTLC
T1 construct: endogenous in cells; host or cells: primary astrocytes
T1 sequence (O88419 1-382): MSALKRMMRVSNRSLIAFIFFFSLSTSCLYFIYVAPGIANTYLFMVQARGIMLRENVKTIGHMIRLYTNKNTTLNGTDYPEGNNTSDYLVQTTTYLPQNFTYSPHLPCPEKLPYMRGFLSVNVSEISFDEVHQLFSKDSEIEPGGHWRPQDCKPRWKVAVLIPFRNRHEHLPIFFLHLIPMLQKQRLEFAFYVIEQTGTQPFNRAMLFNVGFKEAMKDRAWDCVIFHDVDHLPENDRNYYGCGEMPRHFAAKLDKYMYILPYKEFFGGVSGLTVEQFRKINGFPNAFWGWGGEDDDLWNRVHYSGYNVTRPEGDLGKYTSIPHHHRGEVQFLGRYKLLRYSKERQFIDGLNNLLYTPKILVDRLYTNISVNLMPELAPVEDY
Method: Measurement of lactosylceramide synthesis. Cultured cells were incubated in growth medium containing [^14C] galactose (5 ? Ci/ml) for 24 h as described previously. The medium was removed, and the cell monolayer was washed with sterile PBS to remove nonspecifically adsorbed radioactivity and fresh serum free medium was added. After the stimulation of cells with LPS/IFN ? (1 ? g/ml; 10 U/ml) for various durations cells were then harvested and washed with ice cold PBS and lysed by sonication. Following protein quantification, […] of protein was used for extraction of lipids using Chloroform:Methanol:HCl (100:100:1). The organic phase was dried under nitrogen. Glycosphingolipids were resolved by high performance thin layer chromatography using chloroform/methanol/0.25% KCl (70:30:4, v/v/v) as the developing solvent. The chromatographic plate was dried in air and stained with iodine vapors. The gel area corresponding to LacCer was scraped, and radioactivity was measured employing “liquiscint” (NEN Life Science Products) as a scintillating fluid.

ERK1/2 = ERK1/2 phosphorylation by immunoblot after LPS/IFN; type: cell-based, rat; settings: D-PDMP pretreatment; LPS/IFN 20 minutes
Method: as §1

## CCCCCCCCCC(=O)NC(CN1CCOCC1)C(O)c1ccccc1.Cl [D-PDMP, D-threo-1-Phenyl-2-decanoylamino-3-morpholino-1-propanol HCl]
NF-κB; D-PDMP 0.5 hr before LPS/IFN
  LPS/IFN induced luciferase activity (κB-repeat luciferase): abolished
NF-κB; in the presence of D-PDMP
  phosphorylation of IκB: Decreased
NF-κB; increasing doses of D-PDMP, LPS/IFN 45 minutes
  NF-κB DNA binding activity (electrophoresis mobility shift assay): inhibited
[1]
  increase in LacCer biosynthesis following LPS/IFN stimulation: inhibited this increase
ERK1/2
  LPS/IFN induced phosphorylation of ERK 1/2: inhibited
